System: isolated rodent brain-derived mitochondria
Conditions: under energized and de-energized conditions; comparable to the effects of cyclosporine A
Text: Spinal cord injury model (in vivo) • Adult Lewis rats are injured microsurgically by transecting the dorsal half of the spinal cord bilaterally at the level of the eighth thoracic vertebra. Laminectomy, anesthesia and surgery are described in Schnell and Schwab, Eur J Neurosci, Vol. 5, pp. 1156-1171 (1993). […] Tamura et al., J Cereb Blood Flow Metabol, Vol. 1, pp. 53-60 (1981); and Sauter and Rudin, Stroke, Vol. 17, pp. 1228-1234 (1986)]. • 3. Inhibition of mitochondrial permeability transition in isolated rodent brain-derived mitochondria and prevention of cell death in an in vitro model of ischemic brain damage, e.g. as described in Rytter et al., JCBF, Vol. 23, pp. 23-33.

Substance | inhibition of calcium-induced mitochondrial swelling
[γ-hydroxy-MeLeu]^4-Ciclosporin | inhibitors of calcium-induced mitochondrial swelling
[Melle]^4-Ciclosporin | inhibitors of calcium-induced mitochondrial swelling

Reference: patent US20080194470A1, “Nim811 In Cerebral Ischemia and Brain and Spinal Cord Injury” (Novartis AG, priority 2004, published 2008)
